Consider 16 compounds from patent US20090170813A1, “Hypophosphorous Acid Derivatives and their Therapeutical Applications” (priority 2005, published 2009).

Read-outs that look alike come from different tables or passages of the source.

In assay [1] the target is T1, mGlu4R (Homo sapiens, UniProt Q14833). Conditions: background statement; read-out: IC50 as competitive antagonist; cited from earlier work.
A further assay concerns the target mGlu8 (Homo sapiens, UniProt O00222). The assay can be described thus: Agonist activity on group III receptor mGlu8.
The next assay deals with mGlu7 (Homo sapiens, UniProt Q14831). Briefly: Agonist activity on group III receptor mGlu7.
The target of another assay is T2, rat mGlu4 (Rattus norvegicus, UniProt P31423).
T2 construct: expressed in transfected cells; host or cells: HEK293
The assay can be described thus: Agonist activity, [3H]phosphatidylinositol accumulation in HEK293 cells transfected with rat mGlu4 and Gqi9. Type of assay: cell-based. On the procedure: Agonist activity of the compounds was tested on HEK293 cells transiently transfected with rat mGlu4 expressing plasmid pRKG4 and chimeric G-protein Gqi9 by electroporation, as described by Gomeza, J. et al, Mol. Pharmacol; 1996, 50, 923-930.
Cells were plated in 96-well culture plates and labeled overnight with [^3H]myoinositol. The day after, cells were washed three times with Krebs buffer, incubated for 10 min with LiCl 5 mM, and then incubated for 30 min in the absence (basal) or in the presence of the indicated compounds at 1 nM up to 1000 μM. The total amount of [^3H]phosphatidylinositol accumulated in the cells was determined after Dowex purification as previously by Goudet C, et al, Prod. Natl. Acad. Sci. USA 2004, 101, 378-383.
The response dosis curves were adjusted by using equatrier y=[(Ymax−ymin)/(1+(x/EC50)^n)]+ymin where EC50 is the concentration necessary for obtaining half of the maximal effect and n is Hill coefficient.

In assay [2] the target is T1, mGlu4R. Conditions: background statement; read-out: EC50 as mGlu4R agonist; cited from earlier work.
Setting [3] is: Table 1, mean ± spread (n), read-out: EC50 mGlu4.
Setting [4] is: Table 2, n in brackets, read-out: mGlu4 EC50 μM (n).

T2 sequence (P31423 33-912): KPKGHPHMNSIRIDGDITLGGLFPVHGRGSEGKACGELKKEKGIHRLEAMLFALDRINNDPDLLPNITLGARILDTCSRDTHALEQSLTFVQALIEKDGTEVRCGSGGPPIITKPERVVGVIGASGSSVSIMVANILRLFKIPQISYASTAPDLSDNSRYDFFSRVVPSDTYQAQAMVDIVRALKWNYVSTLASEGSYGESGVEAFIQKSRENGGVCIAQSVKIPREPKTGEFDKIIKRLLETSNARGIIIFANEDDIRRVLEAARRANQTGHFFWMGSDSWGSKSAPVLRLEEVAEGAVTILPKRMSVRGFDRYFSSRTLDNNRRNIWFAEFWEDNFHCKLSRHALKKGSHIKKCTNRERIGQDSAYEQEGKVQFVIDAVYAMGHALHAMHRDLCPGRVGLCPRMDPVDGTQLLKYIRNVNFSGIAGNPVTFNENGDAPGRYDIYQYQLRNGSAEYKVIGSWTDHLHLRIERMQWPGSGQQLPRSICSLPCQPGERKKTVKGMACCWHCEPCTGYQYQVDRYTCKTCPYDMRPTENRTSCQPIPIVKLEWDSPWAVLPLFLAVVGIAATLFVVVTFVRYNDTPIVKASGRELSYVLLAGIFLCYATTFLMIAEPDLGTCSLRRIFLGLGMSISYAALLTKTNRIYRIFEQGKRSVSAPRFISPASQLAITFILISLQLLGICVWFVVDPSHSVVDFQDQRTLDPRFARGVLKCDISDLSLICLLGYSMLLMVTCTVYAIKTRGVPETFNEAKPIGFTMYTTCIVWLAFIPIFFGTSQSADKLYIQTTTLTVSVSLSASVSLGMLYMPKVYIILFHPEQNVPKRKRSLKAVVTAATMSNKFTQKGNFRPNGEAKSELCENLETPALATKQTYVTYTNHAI
Sequence of mGlu8 (O00222 34-908): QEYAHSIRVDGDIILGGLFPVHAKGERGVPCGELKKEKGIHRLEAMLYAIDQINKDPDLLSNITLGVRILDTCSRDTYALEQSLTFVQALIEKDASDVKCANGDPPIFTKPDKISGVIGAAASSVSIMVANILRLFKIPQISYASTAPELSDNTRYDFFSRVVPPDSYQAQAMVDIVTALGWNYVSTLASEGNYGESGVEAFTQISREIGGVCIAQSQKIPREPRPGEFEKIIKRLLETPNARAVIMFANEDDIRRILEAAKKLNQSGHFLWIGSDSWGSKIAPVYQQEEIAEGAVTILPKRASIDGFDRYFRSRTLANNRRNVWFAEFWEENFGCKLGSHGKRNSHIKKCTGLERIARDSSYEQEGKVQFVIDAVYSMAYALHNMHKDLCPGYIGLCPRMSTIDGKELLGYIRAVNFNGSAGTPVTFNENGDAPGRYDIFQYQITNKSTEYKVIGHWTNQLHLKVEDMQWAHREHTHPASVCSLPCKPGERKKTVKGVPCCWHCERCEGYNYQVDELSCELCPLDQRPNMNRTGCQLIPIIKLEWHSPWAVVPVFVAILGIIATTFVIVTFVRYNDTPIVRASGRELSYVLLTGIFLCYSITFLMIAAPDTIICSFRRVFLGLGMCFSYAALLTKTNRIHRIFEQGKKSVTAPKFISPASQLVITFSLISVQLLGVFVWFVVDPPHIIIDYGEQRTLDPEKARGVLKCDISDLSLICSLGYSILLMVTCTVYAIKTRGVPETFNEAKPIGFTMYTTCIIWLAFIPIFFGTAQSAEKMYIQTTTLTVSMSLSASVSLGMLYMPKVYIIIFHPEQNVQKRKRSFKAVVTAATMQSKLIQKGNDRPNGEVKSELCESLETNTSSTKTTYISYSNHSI
Sequence of mGlu7 (Q14831 35-915): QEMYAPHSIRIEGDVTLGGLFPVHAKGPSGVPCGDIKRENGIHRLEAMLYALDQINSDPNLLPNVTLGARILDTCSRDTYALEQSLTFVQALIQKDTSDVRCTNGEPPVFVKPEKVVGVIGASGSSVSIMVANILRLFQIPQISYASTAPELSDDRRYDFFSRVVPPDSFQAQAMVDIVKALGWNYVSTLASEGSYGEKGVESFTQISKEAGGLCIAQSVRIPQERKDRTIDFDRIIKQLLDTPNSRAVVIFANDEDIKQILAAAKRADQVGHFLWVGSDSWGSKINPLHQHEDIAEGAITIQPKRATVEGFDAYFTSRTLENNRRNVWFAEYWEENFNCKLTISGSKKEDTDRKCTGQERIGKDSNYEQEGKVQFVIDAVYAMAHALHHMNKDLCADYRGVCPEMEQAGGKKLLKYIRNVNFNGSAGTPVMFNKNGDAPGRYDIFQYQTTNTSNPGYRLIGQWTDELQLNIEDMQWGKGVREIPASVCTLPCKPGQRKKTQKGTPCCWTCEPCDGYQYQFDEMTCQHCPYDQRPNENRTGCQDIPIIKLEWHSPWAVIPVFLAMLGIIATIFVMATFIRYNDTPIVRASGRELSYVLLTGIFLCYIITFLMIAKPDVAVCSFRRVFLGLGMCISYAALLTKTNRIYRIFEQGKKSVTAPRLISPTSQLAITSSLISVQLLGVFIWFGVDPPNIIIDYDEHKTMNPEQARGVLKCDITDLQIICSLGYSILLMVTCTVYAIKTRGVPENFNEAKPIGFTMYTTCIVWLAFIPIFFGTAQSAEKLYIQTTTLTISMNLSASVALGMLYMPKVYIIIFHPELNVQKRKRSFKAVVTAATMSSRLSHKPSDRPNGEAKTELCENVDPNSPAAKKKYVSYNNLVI
T1 sequence (Q14833 33-912): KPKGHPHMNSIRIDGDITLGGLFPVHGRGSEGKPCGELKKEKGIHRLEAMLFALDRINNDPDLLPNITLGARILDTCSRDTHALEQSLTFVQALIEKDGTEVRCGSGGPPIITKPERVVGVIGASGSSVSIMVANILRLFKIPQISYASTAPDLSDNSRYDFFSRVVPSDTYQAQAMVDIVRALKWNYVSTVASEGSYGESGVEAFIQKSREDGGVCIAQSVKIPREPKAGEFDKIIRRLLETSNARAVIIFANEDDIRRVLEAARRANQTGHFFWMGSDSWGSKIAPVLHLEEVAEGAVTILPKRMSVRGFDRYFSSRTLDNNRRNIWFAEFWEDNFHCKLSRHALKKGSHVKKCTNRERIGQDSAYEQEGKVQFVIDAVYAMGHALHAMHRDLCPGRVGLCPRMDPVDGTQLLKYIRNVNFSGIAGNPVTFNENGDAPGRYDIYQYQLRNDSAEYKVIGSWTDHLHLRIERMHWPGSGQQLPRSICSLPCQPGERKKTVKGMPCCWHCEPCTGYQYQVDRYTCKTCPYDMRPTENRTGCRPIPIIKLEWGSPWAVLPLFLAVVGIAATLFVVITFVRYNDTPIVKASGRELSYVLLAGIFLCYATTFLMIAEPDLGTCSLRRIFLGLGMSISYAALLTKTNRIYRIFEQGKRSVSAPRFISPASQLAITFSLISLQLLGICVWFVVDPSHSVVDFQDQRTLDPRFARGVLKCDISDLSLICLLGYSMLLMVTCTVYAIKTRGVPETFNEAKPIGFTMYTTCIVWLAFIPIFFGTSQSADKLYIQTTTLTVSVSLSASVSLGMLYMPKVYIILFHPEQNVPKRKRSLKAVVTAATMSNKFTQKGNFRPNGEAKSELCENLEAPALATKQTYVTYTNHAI

As for `CC(N)(CCP(=O)(O)O)C(=O)O` (stereo not drawn) [α-methyl analogue], at mGlu4R [1], the IC50 – broadly, the concentration at which inhibition is half-maximal – is 100 µM.
As for `NC(CCP(=O)(O)CCC(=O)O)C(=O)O` (racemic) [Compound 4, 3-[((3-Amino-3-carboxy)propyl)(hydroxy)phosphinyl]propanoic Acid], the EC50 (in general, the midpoint of the concentration-response curve) at mGlu8 is 24.2 ± 9 µM; at mGlu7, greater than 1000 µM; on rat mGlu4 (setting [3]), 6.6 ± 2.8 µM; on rat mGlu4 (setting [4]), 7.1 µM.
`NC(CCP(=O)(O)O)C(=O)O` [L-AP4]: the EC50 on mGlu4R [2] is 0.32 µM.
As for `N[C@@H](CCP(=O)(O)C(O)c1cc([N+](=O)[O-])cc([N+](=O)[O-])c1O)C(=O)O` (stereo partly drawn) [Compound 76, (3S)-3-[(((3-amino-3-carboxy)propyl)(hydroxy)phosphinyl)-hydroxymethyl] 2-hydroxy-1,5-dinitrobenzene], on rat mGlu4 (setting [4]), the EC50 was 2.3 µM.
On the same count and under the same terms, for `N[C@@H](CCP(=O)(O)C(O)c1cc([N+](=O)[O-])cc([N+](=O)[O-])c1)C(=O)O` (stereo partly drawn) [Compound 97, (3S)-3-[(((3-amino-3-carboxy)propyl)(hydroxy)phosphinyl)-hydroxymethyl] 1,5-dinitrobenzene] the value was 0.81 µM; for `N[C@@H](CCP(=O)(O)C(O)c1ccc(Cl)c([N+](=O)[O-])c1)C(=O)O` (stereo partly drawn) [Compound 66, (3S)-3-[(((3-amino-3-carboxy)propyl)(hydroxy)phosphinyl)-hydroxymethyl]-6-chloro-1-nitrobenzene], 2.74 µM.
With `N[C@H](CCP(=O)(O)CCC(=O)O)C(=O)O` [(3R)-PCEP, 3-amino-carboxy-propyl-2′-carboxy-ethylphosphinic acid, reference compound], the EC50 was 58.2 ± 8.8 µM at mGlu8 (read-out: EC50 mGlu8, Table 1, mean ± spread (n)); greater than 1000 µM at mGlu7 (read-out: EC50 mGlu7, Table 1); 24.2 ± 7.6 µM at rat mGlu4 (setting [3]).
Turning to `N[C@@H](CCP(=O)(O)C(O)C1CC1C(=O)O)C(=O)O` (single isomer, unassigned) [CS158], at rat mGlu4 (setting [4]), the EC50 amounted to 5.1 µM.
In the case of `C/C(=C\C(=O)O)C(O)P(=O)(O)CC[C@H](N)C(=O)O` (stereo partly drawn) [Compound 31, (3S)-4-[((3-amino-3-carboxy)propyl)(hydroxy)phosphinyl]-4-hydroxy-3-methyl-2-butenoic Acid], at rat mGlu4 (at 100 μM), the “mGlu4 activity at 100 μM” value is “inactive at 100 μM (1)”.
Consider `N[C@@H](CCP(=O)(O)C(O)C1CC1C(=O)O)C(=O)O` (single isomer, unassigned) [CS159], for which, at rat mGlu4 (Table 2, remark beside EC50), the “mGlu4 agonist character (partial)” value is given as “partial”. Also, the EC50 on rat mGlu4 (setting [4]) is 12.9 µM.
Turning to `N[C@@H](CCP(=O)(O)C(O)c1cccc([N+](=O)[O-])c1O)C(=O)O` (stereo partly drawn) [Compound 78, (3S)-3-[(((3-amino-3-carboxy)propyl)(hydroxy)phosphinyl)-hydroxymethyl] 2-hydroxy-nitrobenzene], the half-maximal effective concentration (EC50) at rat mGlu4 (setting [4]) amounted to 15.2 µM.
Same read-out and setting: with `N[C@@H](CCP(=O)(O)C(O)c1cccc([N+](=O)[O-])c1)C(=O)O` (stereo partly drawn) [Compound 56, (3S)-3-[(((3-amino-3-carboxy)propyl)(hydroxy)phosphinyl)-hydroxymethyl] 3-nitrobenzene] the figure was 0.63 µM.
Take `N[C@@H](CCP(=O)(O)Cc1cccc(C(=O)O)c1)C(=O)O` [Compound 46, (3S)-3-[(((3-amino-3-carboxy)propyl)(hydroxy)phosphinyl)-methyl]benzoic Acid]: the “mGlu4 % max at 100 μM” value at rat mGlu4 (at 100 μM) is recorded as 33% max at 100 μM (1).
`N[C@@H](CCP(=O)(O)CC(=O)O)C(=O)O` [Compound 26, (3S)-2-[((3-amino-3-carboxy)propyl)(hydroxy)phosphinyl]ethanoic Acid]: the EC50 on rat mGlu4 (setting [4]) turned out to be 3.8 µM.
For `N[C@@H](CCP(=O)(O)C(CC(=O)O)CP(=O)(O)O)C(=O)O` (stereo partly shown) [Compound 44], the “mGlu4 % max at 100 μM” value at rat mGlu4 (at 100 μM) is recorded as 33% max at 100 μM (1).
As to `N[C@@H](CCP(=O)(O)C(O)c1cccc(C(=O)O)c1)C(=O)O` (stereo partly drawn) [Compound 24, (3S)-3-[(((3-amino-3-carboxy)propyl)(hydroxy)phosphinyl)-hydroxymethyl]benzoic Acid], at rat mGlu4 (setting [4]), the EC50 was determined as 20.8 µM.
